Assay results from article PMC4467398, “Preclinical antitumor activity of ST7612AA1: a new oral thiol-based histone deacetylase (HDAC) inhibitor” (Oncotarget, 2014).

System: DOHH2 and TMD8 DLBCL cells
Assay: Gene expression profiling (HumanHT-12 v4 BeadChip, limma), ST7612AA1 300 nM 8 hrs vs DMSO
Type: cell-based, human
Conditions: 300 nM 8 hrs vs DMSO

CC(=O)SCCCCC[C@H](NC(=O)[C@H]1CCC(=O)N1)C(=O)Nc1ccccc1 [ST7612AA1]
log ratio ESAM (probe ILMN_1668092): 7.54E-01 | log ratio EVI2A (ILMN_1733579): -1.21E+00 | log ratio EXOSC8 (ILMN_1756162): -8.59E-01 | log ratio EXTL2 (ILMN_2388425): 6.00E-01 | log ratio F11R (probe ILMN_2342033): 8.81E-01 | log ratio FAIM (ILMN_1690101): -1.08E+00 | log ratio FAIM (ILMN_2351548): -9.70E-01 | log ratio FAM49A (ILMN_1794038): 6.23E-01 | log ratio FAM65A (probe ILMN_1680037): 7.70E-01 | log ratio FAM108A2 (ILMN_3178529): 6.40E-01 | log ratio FAM110A (ILMN_2323944): 6.14E-01 | log ratio FAM116B (probe ILMN_1659029): 7.74E-01 | log ratio FAM120B (probe ILMN_1679641): 7.62E-01 | log ratio FAM136A (ILMN_1655307): -1.26E+00 | log ratio FAM136B (ILMN_3241756): -7.94E-01 | log ratio FAM149B1 (probe ILMN_3245452): 7.21E-01 | log ratio FAM160B1 (ILMN_3231638): -6.11E-01 | log ratio FAM164A (ILMN_1789558): 6.20E-01 | log ratio FAM167A (probe ILMN_3248511): 7.13E-01 | log ratio FBXO15 (ILMN_1755281): 6.57E-01 | log ratio FBXO18 (probe ILMN_1729430): 7.97E-01 | log ratio FCGRT (probe ILMN_1705302): 6.92E-01 | log ratio FCHSD2 (ILMN_1815734): -6.17E-01 | log ratio FERMT3 (ILMN_2366330): -1.23E+00 | log ratio FGD2 (probe ILMN_2115005): 7.14E-01 | log ratio FGF9 (probe ILMN_1762531): 7.84E-01 | log ratio FHL1 (probe ILMN_1805842): 7.76E-01 | log ratio FKBP11 (ILMN_1787345): -9.71E-01 | log ratio FLJ22795 (probe ILMN_2150802): 8.56E-01 | log ratio FNBP1 (ILMN_1797342): 6.67E-01 | log ratio FOXC1 (probe ILMN_1738401): 8.63E-01 | log ratio FOXO1 (probe ILMN_1738816): 8.61E-01 | log ratio FOXO4 (probe ILMN_1712095): 6.93E-01 | log ratio FSD1 (probe ILMN_1813490): 7.25E-01 | log ratio FUCA1 (probe ILMN_1752728): 8.57E-01 | log ratio FVT1 (ILMN_2154052): 6.36E-01 | log ratio FXYD5 (ILMN_2309848): 6.27E-01 | log ratio G6PD (probe ILMN_1697559): 6.93E-01 | log ratio GABARAPL2 (probe ILMN_1796458): 7.62E-01 | log ratio GAMT (probe ILMN_1756469): 8.74E-01 | log ratio GAPT (ILMN_1675191): -1.10E+00 | log ratio GAPT (ILMN_3242271): -1.08E+00 | log ratio GAR1 (ILMN_2412549): -9.54E-01 | log ratio GAR1 (ILMN_3263329): -9.36E-01 | log ratio GATM (probe ILMN_1729180): 7.75E-01 | log ratio GATS (ILMN_1699631): 6.00E-01 | log ratio GBE1 (ILMN_1789702): -8.91E-01 | log ratio GCDH (ILMN_2296843): 6.56E-01 | log ratio GCH1 (probe ILMN_1812759): 7.11E-01 | log ratio GINS3 (ILMN_1754272): -8.17E-01 | log ratio GM2A (ILMN_2221046): 5.90E-01 | log ratio GMEB2 (ILMN_1683204): -5.99E-01 | log ratio GNG11 (ILMN_1782419): 6.02E-01 | log ratio GOLGB1 (probe ILMN_1747935): 7.13E-01 | log ratio GPATCH4 (ILMN_2383305): -1.16E+00 | log ratio GPATCH4 (ILMN_2383306): -1.12E+00 | log ratio GPER (ILMN_1795298): -1.70E+00 | log ratio GPER (ILMN_2384056): -1.82E+00 | log ratio GPT2 (probe ILMN_1684158): 8.12E-01 | log ratio GPX4 (ILMN_1734353): 6.05E-01 | log ratio GPX7 (ILMN_1726030): -1.08E+00 | log ratio GRB2 (ILMN_1748797): 6.01E-01 | log ratio GRN (probe ILMN_1724250): 8.24E-01 | log ratio GRWD1 (ILMN_1742166): -6.02E-01 | log ratio GSDMB (ILMN_2347193): 6.61E-01 | log ratio GSTO1 (ILMN_2227573): -6.01E-01 | log ratio GTF2B (ILMN_1737857): 6.21E-01 | log ratio GTF2I (ILMN_1673917): -1.01E+00 | log ratio GTF2IRD2B (ILMN_1680501): -1.15E+00 | log ratio GTF3C2 (ILMN_1746457): -7.85E-01 | log ratio GTF3C6 (ILMN_1691578): -1.19E+00 | log ratio GTPBP6 (ILMN_1776080): -8.00E-01 | log ratio HABP4 (ILMN_1792384): 5.90E-01 | log ratio HABP4 (probe ILMN_2107991): 7.82E-01 | log ratio HAGH (probe ILMN_1772731): 8.84E-01 | log ratio HCFC1 (ILMN_1732705): -1.50E+00 | log ratio HDDC2 (ILMN_1753745): -8.45E-01 | log ratio HDGF (ILMN_1765621): -8.47E-01 | log ratio HERC1 (probe ILMN_1786211): 7.40E-01 | log ratio HERC6 (ILMN_1654639): -6.08E-01 | log ratio HERPUD1 (probe ILMN_2374159): 8.50E-01 | log ratio HEY1 (probe ILMN_1788203): 8.91E-01 | log ratio HEY2 (probe ILMN_1682034): 7.56E-01 | log ratio HIST1H1C (probe ILMN_1757406): 8.24E-01 | log ratio HIST2H2AA3 (probe ILMN_2144426): 8.03E-01 | log ratio HK2 (ILMN_1723486): -1.09E+00 | log ratio HLA-DOA (ILMN_1659075): 6.55E-01 | log ratio HLA-DPA1 (probe ILMN_1772218): 8.12E-01 | log ratio HLA-DQA1 (probe ILMN_1808405): 8.25E-01 | log ratio HLA-DRB4 (probe ILMN_1752592): 7.27E-01 | log ratio HLA-DRB6 (ILMN_2066066): 5.94E-01 | log ratio HLA-E (probe ILMN_1765258): 8.07E-01 | log ratio HLTF (ILMN_1798588): 6.54E-01 | log ratio HLTF (probe ILMN_1673820): 7.48E-01 | log ratio HNRNPR (ILMN_3177285): -5.97E-01 | log ratio HNRPH3 (ILMN_1654920): -7.98E-01 | log ratio HNRPLL (ILMN_1791575): 6.20E-01 | log ratio HOOK2 (probe ILMN_1682147): 7.36E-01 | log ratio HPSE (ILMN_1779547): 5.94E-01 | log ratio HSD17B8 (ILMN_1715324): 6.72E-01 | log ratio HSPA1B (probe ILMN_1660436): 7.16E-01 | log ratio HSPC111 (ILMN_1704055): -1.16E+00 | log ratio ID1 (probe ILMN_1664861): 7.75E-01 | log ratio IFFO1 (probe ILMN_2348268): 8.07E-01 | log ratio IFI16 (ILMN_1710937): -9.06E-01 | log ratio IFI35 (ILMN_1745374): -8.00E-01 | log ratio IFRD2 (ILMN_1742031): -7.99E-01 | log ratio IGSF3 (probe ILMN_1704353): 8.50E-01 | log ratio INTS10 (ILMN_1679483): -8.21E-01 | log ratio IRAK1 (ILMN_2379130): -1.37E+00 | log ratio IRAK2 (ILMN_1745964): 6.17E-01 | log ratio ISG20L1 (ILMN_1814282): -8.55E-01 | log ratio ISOC2 (ILMN_1769158): -9.83E-01 | log ratio ITFG2 (ILMN_1701244): -8.71E-01 | log ratio ITFG3 (ILMN_1810055): 6.64E-01 | log ratio ITGA4 (ILMN_1747052): -6.00E-01 | log ratio ITGB1 (ILMN_1723467): 6.32E-01 | log ratio ITGB1 (ILMN_2383934): 6.80E-01 | log ratio ITGB1 (probe ILMN_1714820): 7.06E-01 | log ratio ITPKA (probe ILMN_1776516): 7.10E-01 | log ratio JAK1 (probe ILMN_1793384): 7.91E-01 | log ratio KAT2A (ILMN_1782247): -6.02E-01 | log ratio KBTBD2 (ILMN_1784540): -6.12E-01 | log ratio KEAP1 (ILMN_2410771): -8.88E-01 | log ratio KEAP1 (ILMN_2410772): -9.23E-01 | log ratio KIAA0020 (ILMN_1665483): -7.91E-01 | log ratio KIAA0368 (ILMN_1847822): -1.24E+00 | log ratio KIAA1602 (ILMN_1763640): 6.30E-01 | log ratio KIF3B (ILMN_1702279): 6.21E-01 | log ratio KIFC2 (ILMN_1803018): 6.72E-01 | log ratio KLF9 (ILMN_1778523): 6.77E-01 | log ratio KLHDC5 (ILMN_1727134): -1.09E+00 | log ratio KLHL5 (probe ILMN_1706687): 8.05E-01 | log ratio KLRAQ1 (probe ILMN_3271092): 7.11E-01 | log ratio KPNB1 (ILMN_1703949): -1.01E+00 | log ratio L3MBTL2 (ILMN_3307786): -8.52E-01 | log ratio LAMC1 (ILMN_1810852): 6.63E-01 | log ratio LANCL2 (ILMN_1708009): -8.15E-01 | log ratio LARP1B (ILMN_1733390): -7.84E-01 | log ratio LASS2 (ILMN_1726108): -7.85E-01 | log ratio LASS2 (ILMN_2400500): -9.26E-01 | log ratio LCMT1 (probe ILMN_1688452): 7.21E-01 | log ratio LCMT1 (probe ILMN_2336186): 7.52E-01 | log ratio LIN9 (ILMN_2137084): -6.10E-01 | log ratio LMNA (probe ILMN_1737394): 7.98E-01 | log ratio LOC151162 (probe ILMN_3238058): 7.72E-01 | log ratio LOC205251 (ILMN_1693685): -6.17E-01 | log ratio LOC253039 (probe ILMN_3236498): 8.10E-01 | log ratio LOC283683 (probe ILMN_1659327): 8.30E-01 | log ratio LOC285176 (ILMN_1694327): -5.99E-01
